Active and inactive are the calls of the source. No cut-off for these calls is given here.
Key:
Plasmodium falciparum [1] = experiment: Antimalarial activity against chloroquine-sensitive Plasmodium falciparum RKL-2 assessed as dead rings and schizonts at 100 ug/ml after 36 to 40 hr incubation by Giemsa staining; assay type: functional
Plasmodium falciparum [2] = experiment: Antimalarial activity against chloroquine-sensitive Plasmodium falciparum 3D7 assessed as inhibition of schizont maturation at 100 ug/ml after 36 to 40 hr incubation by Giemsa staining; assay type: functional
Plasmodium falciparum [3] = experiment: Antimalarial activity against chloroquine-sensitive Plasmodium falciparum 3D7 assessed as inhibition of schizont maturation at 50 ug/ml after 36 to 40 hr incubation by Giemsa staining; assay type: functional
Plasmodium falciparum [4] = experiment: Antimalarial activity against chloroquine-sensitive Plasmodium falciparum 3D7 assessed as inhibition of schizont maturation at 10 ug/ml after 36 to 40 hr incubation by Giemsa staining; assay type: functional
Plasmodium falciparum [5] = experiment: Antimalarial activity against chloroquine-sensitive Plasmodium falciparum 3D7 assessed as inhibition of schizont maturation at 2 ug/ml after 36 to 40 hr incubation by Giemsa staining; assay type: functional
Plasmodium falciparum [6] = experiment: Antimalarial activity against chloroquine-sensitive Plasmodium falciparum 3D7 assessed as inhibition of schizont maturation at 1 ug/ml after 36 to 40 hr incubation by Giemsa staining; assay type: functional
Plasmodium falciparum [7] = experiment: Antimalarial activity against chloroquine-sensitive Plasmodium falciparum 3D7 assessed as inhibition of schizont maturation at 0.25 ug/ml after 36 to 40 hr incubation by Giemsa staining; assay type: functional
Plasmodium falciparum [8] = experiment: Antimalarial activity against chloroquine-sensitive Plasmodium falciparum 3D7 assessed as inhibition of schizont maturation at 0.125 ug/ml after 36 to 40 hr incubation by Giemsa staining; assay type: functional
Plasmodium falciparum [9] = experiment: Antimalarial activity against chloroquine-sensitive Plasmodium falciparum 3D7 assessed as inhibition of schizont maturation at 0.5 ug/ml after 36 to 40 hr incubation by Giemsa staining; assay type: functional
Plasmodium falciparum [10] = experiment: Antimalarial activity against chloroquine-sensitive Plasmodium falciparum RKL-2 assessed as dead rings and schizonts at 0.4 ug/ml after 36 to 40 hr incubation by Giemsa staining; assay type: functional
Plasmodium falciparum [11] = experiment: Antimalarial activity against chloroquine-sensitive Plasmodium falciparum 3D7 assessed as inhibition of schizont maturation at 0.0625 ug/ml after 36 to 40 hr incubation by Giemsa staining; assay type: functional
Plasmodium falciparum [12] = experiment: Antimalarial activity against chloroquine-sensitive Plasmodium falciparum 3D7 assessed as inhibition of schizont maturation at 0.031 ug/ml after 36 to 40 hr incubation by Giemsa staining; assay type: functional
Plasmodium yoelii [13] = experiment: Antimalarial activity against chloroquine-resistant Plasmodium yoelii infected Swiss mouse assessed as mouse showing nil parasitemia at 500 mg/kg, po qd for 4 days measured on day 10; assay type: functional, organism-based; design: dose 500 mg/kg
Plasmodium yoelii [14] = experiment: Antimalarial activity against chloroquine-resistant Plasmodium yoelii infected Swiss mouse assessed as mouse showing nil parasitemia at 500 mg/kg, po qd for 4 days measured on day 4; assay type: functional, organism-based; design: dose 500 mg/kg
Plasmodium yoelii [15] = experiment: Antimalarial activity against chloroquine-resistant Plasmodium yoelii infected Swiss mouse assessed as mouse showing nil parasitemia at 500 mg/kg, po qd for 4 days measured on day 7; assay type: functional, organism-based; design: dose 500 mg/kg
Plasmodium falciparum [16] = experiment: Antimalarial activity against chloroquine-sensitive Plasmodium falciparum 3D7 assessed as inhibition of schizont maturation at 0.063 ug/ml after 36 to 40 hr incubation by Giemsa staining; assay type: functional
Plasmodium yoelii [17] = experiment: Antimalarial activity against chloroquine-resistant Plasmodium yoelii infected Swiss mouse assessed as suppression parasitemia at 500 mg/kg, po qd for 4 days; assay type: functional

For `CC(C)N(Cc1cc(Nc2ccnc3cc(Cl)ccc23)ccc1O)C(C)C`, the Activity (Plasmodium falciparum [1]) was 3%.

`Oc1ccc(Nc2ccnc3cc(Cl)ccc23)cc1CN(c1ccccc1)c1ccccc1` was tested, and the inhibition at 100 µg/mL (Plasmodium falciparum [2]) was 38.9% and the inhibition at 50 µg/mL (Plasmodium falciparum [3]) was 0.05%.

With `CCCCN(CCCC)Cc1cc(Nc2ccnc3cc(Cl)ccc23)ccc1O` the Activity (Plasmodium falciparum [1]) was 5%.

`CCCCNCc1cc(Nc2ccnc3cc(Cl)ccc23)ccc1O` showed an inhibition at 10 µg/mL (Plasmodium falciparum [4]) of 100%, an inhibition at 100 µg/mL (Plasmodium falciparum [2]) of 100% and an inhibition at 2 µg/mL (Plasmodium falciparum [5]) of 82.2%. For the same molecule, the inhibition at 50 µg/mL (Plasmodium falciparum [3]) was 100% and the inhibition at 1 µg/mL (Plasmodium falciparum [6]) was 71.1%.

In the case of `CCN(CC)CCCC(C)Nc1ccnc2cc(Cl)ccc12` (stereo not given) [CHLOROQUINE], the inhibition at 0.25 µg/mL (Plasmodium falciparum [7]) is reported as 100%, the inhibition at 0.125 µg/mL (Plasmodium falciparum [8]) is reported as 97.1% and the inhibition at 0.5 µg/mL (Plasmodium falciparum [9]) is reported as 100%. It also gave an Activity (Plasmodium falciparum [10]) of 54% and an inhibition at 0.0625 µg/mL (Plasmodium falciparum [11]) of 88.4%.

`CC(C)NCc1cc(Nc2ccnc3cc(Cl)ccc23)ccc1O` was tested, and the Activity (Plasmodium falciparum [1]) was 6.5%.

`Oc1ccc(Nc2ccnc3cc(Cl)ccc23)cc1CN1CCOCC1` was tested, and the inhibition at 0.25 µg/mL (Plasmodium falciparum [7]) was 100%, the inhibition at 10 µg/mL (Plasmodium falciparum [4]) was 100% and the inhibition at 0.125 µg/mL (Plasmodium falciparum [8]) was 100%. For the same molecule, the inhibition at 0.5 µg/mL (Plasmodium falciparum [9]) was 100%, the inhibition at 0.031 µg/mL (Plasmodium falciparum [12]) was 73.3% and the Activity (Plasmodium yoelii [13]) was “Active”. For the same molecule, the Activity (Plasmodium yoelii [14]) was “Active”, the Activity (Plasmodium yoelii [15]) was “Active” and the inhibition at 0.063 µg/mL (Plasmodium falciparum [16]) was 100%. The Activity (Plasmodium yoelii [17]) was 100%, the inhibition at 100 µg/mL (Plasmodium falciparum [2]) was 100% and the inhibition at 2 µg/mL (Plasmodium falciparum [5]) was 100%. For the same molecule, the inhibition at 50 µg/mL (Plasmodium falciparum [3]) was 100% and the inhibition at 1 µg/mL (Plasmodium falciparum [6]) was 100%.

`CCCNCc1cc(Nc2ccnc3cc(Cl)ccc23)ccc1O` showed an Activity (Plasmodium falciparum [1]) of 6.5%.

— ChEMBL document CHEMBL3045700, “Synthesis and in vitro and in vivo antimalarial activity of novel 4-anilinoquinoline Mannich base derivatives” (2011)
